Test results as given in patent US8143031B2, “Production of N-acylated sulphur-containing amino acids with microorganisms having enhanced N-acyltransferase enzymatic activity” (Metabolic Explorer, priority 2008, dated 2012).

Tests used:
YncA = target: T1, YncA (Escherichia coli, UniProt P76112); experiment: DTNB-based substrate and acyl-donor specificity test of YncA; assay type: biochemical, E. coli; settings: for % Activity (activity of YncA with respect to the co-substrate Acetyl-coA): Acetyl-coA = 100; for % Activity (activity with respect to the substrate methionine): methionine = 100; for Activity as substrate of YncA (in words): DTNB-based assay
T1 construct: The purified protein was identified as YncA, a GCN5 related acyl transferase; made in house; host or cells: Untagged endogenous activity purified chromatographically from broken cells; E. coli is inferred
Protocol: (§1) Methionine L-amino-acid-N-acyl transferase activity was followed in microtiter plates by monitoring the apparition of HS-CoA with DTNB. The reaction solution, to which the sample was added, contained 200 mM Tris-HCl, pH 9.0, […], 3 mM Acetyl-coA and 20 mM methionine. Formation of the DTNB-CoA complex was monitored at 408 nm using a μQuant microtiter plate reader (BioTek Instruments, Inc., USA).
The substrate specificity was tested using the DTNB-based assay (see above).

[1] = target: Pseudomonas PA4866 protein (Pseudomonas aeruginosa, UniProt Q9HUU7); settings: cited from earlier work
Sequence of Pseudomonas PA4866 protein (Q9HUU7 whole entry): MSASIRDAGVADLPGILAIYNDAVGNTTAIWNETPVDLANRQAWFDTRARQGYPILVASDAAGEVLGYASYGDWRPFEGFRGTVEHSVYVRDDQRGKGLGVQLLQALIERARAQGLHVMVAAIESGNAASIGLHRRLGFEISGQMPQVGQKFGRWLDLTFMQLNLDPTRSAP

[2] = compared with the L-isomer; cited from earlier work
[3] = compared with pure methionine; cited from earlier work
[4] = MNAT activity test in vitro of purification fractions (DTNB, acetyl-coA, methionine); assay type: biochemical, E. coli; settings: purification steps
Protocol: as §1
˜3 g of dry weight cells were rinsed 3 times with extraction buffer (EB) (50 mM phosphate, pH 7.0, 50 μM PLP, 500 μM DTT) and suspended in 70 mL EB. Cells were broken by sonication using a Rosett cell with a Bandelin Sonoplus ultrasonic homogenizer (Bandelin Electronic, Germany) equipped with a UW2070 probe and a SH70G tip (6 burst, 30 s, 100% efficiency, 75 W). The crude extract was centrifuged (30 min, 12.000 g, 4° C.) and solid ammonium sulfate was added to the supernatant to a final concentration of 2.3 M, and incubated on ice for 30 min. The solution was centrifuged (15 min, 15.000 g, 4° C.) and the pellet suspended in 40 mL phosphate buffer (50 mM phosphate, pH 7.0). Solid ammonium sulfate was added to a final concentration of 1.5 M, and the solution was incubated on ice for 30 min and then centrifuged (15 min, 15.000 g, 4 C). […]

[5] = methionine as substrate, various acyl-donors
[6] = Acetyl-coA as acyl-donor, various substrates

| Molecule | % Activity (activity with respect to the substrate methionine) (YncA; Acetyl-coA as acyl-donor) [%] | Specific Activity (YncA; [6]) [mUI/mg protein] | Activity as substrate of YncA (in words) (YncA) | also measured |
| --- | --- | --- | --- | --- |
| CC(=O)SCCNC(=O)CCNC(=O)[C@H](O)C(C)(C)COP(=O)(O)OP(=O)(O)OC[C@H]1O[C@@H](n2cnc3c(N)ncnc32)[C@H](O)[C@@H]1OP(=O)(O)O [Acetyl-coA] |  |  |  | Activity as acyl-donor of YncA (in words) (YncA; methionine as substrate): worked properly as an acyl donor; % Activity (activity of YncA with respect to the co-substrate Acetyl-coA) (YncA; methionine as substrate): 100%; Specific Activity (YncA; [5]): 745 mUI/mg protein |
| NC(=O)C[C@H](N)C(=O)O [Asparagine] | 2.4 | 18 | Weak activities |  |
| N[C@@H](CC(=O)O)C(=O)O [Aspartate] | 1 |  |  |  |
| CCCC(=O)SCCNC(=O)CCNC(=O)[C@H](O)C(C)(C)COP(=O)(O)OP(=O)(O)OC[C@H]1O[C@@H](n2cnc3c(N)ncnc32)[C@H](O)[C@@H]1OP(=O)(O)O [Butyryl-coA] |  |  |  | Activity as acyl-donor of YncA (in words) (YncA; methionine as substrate): weak activities; % Activity (activity of YncA with respect to the co-substrate Acetyl-coA) (YncA; methionine as substrate): 17%; Specific Activity (YncA; [5]): 129 mUI/mg protein |
| N[C@@H](CCC(=O)O)C(=O)O [Glutamate] | 0.6 | 4 | Weak activities |  |
| NC(=O)CC[C@H](N)C(=O)O [Glutamine] | 1.4 | 10 | Weak activities |  |
| NCCCC[C@H](N)C(=O)O [Lysine] | 1.6 | 12 | Weak activities |  |
| CS(=O)(=O)CC[C@H](N)C(=O)O [Methionine sulfone] | 178.8 | 1332 | Strong activities |  |
| C[S+]([O-])CC[C@H](N)C(=O)O (stereo partly drawn) [Methionine sulfoxide] | 147.6 | 1100 | Strong activities |  |
| CS(=N)(=O)CC[C@H](N)C(=O)O (stereo partly drawn) [Methionine sulfoximine] | 166.9 | 1243 | Strong activities |  |
| CSCC[C@H](N)C(=O)O [Methionine] | 100 | 745 | Strong activities | Acetylation by Pseudomonas PA4866 protein [1]: did not acetylate |
| CSCC[C@@H](NC(C)=O)C(=O)O [N-acetyl-D-methionine] |  |  |  | Incorporation by animals [2]: not incorporated as well as its L-isomer |
| CSCC[C@H](NC(C)=O)C(=O)O [NAM, N-acetyl-L-methionine] |  |  |  | Methionine-sparing value [3]: same methionine-sparing value as pure methionine |
| CCC(=O)SCCNC(=O)CCNC(=O)[C@H](O)C(C)(C)COP(=O)(O)OP(=O)(O)OC[C@H]1O[C@@H](n2cnc3c(N)ncnc32)[C@H](O)[C@@H]1OP(=O)(O)O [Propionyl-coA] |  |  |  | Activity as acyl-donor of YncA (in words) (YncA; methionine as substrate): preferred acyl-donor; % Activity (activity of YncA with respect to the co-substrate Acetyl-coA) (YncA; methionine as substrate): 140%; Specific Activity (YncA; [5]): 1039 mUI/mg protein |
| Purified Protein: Purified methionine N-acyl transferase from E. coli, identified as YncA, a GCN5 related acyl transferase, SEQ ID NO: 1 (protein, listed as Escherichia coli) MSIRFARKADCAAIAEIYNHAVLYTAAIWNDQTVDADNRIAWFEARTLAGYPVLVSEENGVVTGYASFGDWRSFDGFRHTVEHSVYVHPDHQGKGLGRKLLSRLIDEARDCGKHVMVAGIESQNQASLHLHQSLGFVVTAQMPQVGTKFGRWLDLTFMQLQLDERTEPDAIG |  |  |  | Specific Activity ([4]; methionine N-acyl transferase activity): 19689 mUI/mg prot; Activity ([4]; total methionine N-acyl transferase activity): 0.126 UI |
